Test results reported in US4749704A, “Cyclopenta[d]pyrimidine derivatives and use as antidepressants” (Sankyo Company Limited, priority 1985, dated 1988).

How the values were obtained:
[1] = system: reserpine-induced ptosis; test: Test for Anti-reserpine Activity (inhibition of reserpine-induced ptosis); format: in vivo, male mice of the ddy strain; settings: mice, oral, reserpine 2 mg/kg s.c., ptosis at 90, 120 and 180 min
Experimental: The test animals used were male mice of the ddy strain, each weighing 23-25 g. Each compound was tested on a group of five such mice. Each test compound was employed in the form of a solution or suspension in a physiological saline solution containing 0.3% w/v carboxymethylcellulose. The test employed was a partial modification of the method of Rubin et al. [J. Pharmacol. Exptl. Therap., 120, 125 (1957)].
2 mg/kg of reserpine were injected subcutaneously into each mouse and, immediately after the injection, the solution or suspension of the test compound was given orally in a dose of 5 mg/kg, 10 mg/kg or 25 mg/kg, as shown in the following Table. The animals were observed 90 minutes, 120 minutes and 180 minutes after administration to evaluate the inhibition of ptosis. At each observation, each mouse was assigned from 0 to 3 points corresponding to the degree of ptosis, as follows:
0 points: eyes completely open;
1 point: eyes about one third closed;
2 points: eyes about two thirds closed;
3 points: eyes completely closed.
For each mouse, the number of points from all three observations were added together, and the percentage inhibition of reserpine-induced ptosis (Ri) was calculated from the following formula:
Po =total number of points from three observations of an animal to which reserpine alone was administered; and
Pt =total number of points from three observations of an animal to which reserpine and the test compound were administered.

[2] = system: male rats of the F-344 strain; test: Acute Toxicity Test (single oral dose, 7 days observation); format: in vivo, rat (F-344 strain)
Experimental: The test animals used were male rats of the F-344 strain, each weighing from 150 to 170 g. One group of animals was fed normally, whilst another group was starved for 24 hours before administration of the test compound. To each animal was administered orally a single dose of the test compound in the amount shown in the following Table; the animals were then placed under observation for 7 days after administration. The results are reported in Table as "Mortality", where the numerator indicates the number of deaths in the observation period and the denominator indicates the number of animals tested with the particular test compound at the particular dose.

[3] = background statement; cited from earlier work
[4] = system: monoamine oxidase; test: Toxicity to the Liver (inhibition of monoamine oxidase in the rat liver); format: biochemical; settings: estimated from inhibition of monoamine oxidase in the rat liver

Row | SMILES | Ri % (percentage inhibition of reserpine-induced ptosis) ([1]; dose 25 mg (25 mg/kg)) [%] | Mortality (deaths/animals tested) ([2]; fed rats, single oral dose 200 mg) | Mortality (deaths/animals tested) ([2]; starved (24 hours) rats, single oral dose 200 mg) | side-effect activities [3] | toxicity to the liver relative to the prior art compound (Compound A) [4] | Ri % (percentage inhibition of reserpine-induced ptosis) ([1]; dose 5 mg (5 mg/kg)) [%] | Ri % (percentage inhibition of reserpine-induced ptosis) ([1]; dose 10 mg (10 mg/kg)) [%] | Mortality (deaths/animals tested) ([2]; fed rats, single oral dose 800 mg) | Mortality (deaths/animals tested) ([2]; starved (24 hours) rats, single oral dose 1500 mg)
1 | N#Cc1ccc(Nc2ncnc3c2CCC3)cc1 [Compound A, 4-(4-cyanoanilino)-6,7-dihydro-5H-cyclopenta[d]pyrimidine, reference compound] | 85.0 | 1/5 | 3/5 |  |  |  |  |  | 
2 | CN(C)CCCN1c2ccccc2CCc2ccccc21 [Imipramine] |  |  |  | exhibits antihistaminic and anticholinergic activities |  |  |  |  | 
3 | N#Cc1ccc(Nc2ncnc3c2CCC3O)cc1 (stereo not shown) [Compound No. 31, 4-(4-Cyanoanilino)-6,7-dihydro-7-hydroxy-5H-cyclopenta[d]pyrimidine] | 85.7 |  |  |  | about half that of the prior art compound | 50 | 71.4 | 0/5 | 0/5
